The record followed here is patent publication US11498896B2 (The Broad Institute, Inc., priority 2014, dated 2022).

One assay deals with D2 receptor (Homo sapiens (Human), UniProt P14416). As to the kind of experiment: D2 radioligand binding assay.
Assay [1] concerns the target T1, human D2R/β-arrestin (Homo sapiens (Human), UniProt P14416). Briefly: cell-based. The settings on record: cAMP Antagonist, CHO-K1 cells expressing human D2R/β-arrestin; antagonist mode, 2.5 μM forskolin and 2.7 nM quinpirole.
The target of assay [2] is T1, human D2R/β-arrestin. As to the kind of experiment: β-arrestin agonist assay (PathHunter). In kind it is cell-based. The note with it: CHO-K1 cells expressing human D2R/β-arrestin; agonist mode. Here is the method: The detection reagent (9.6 μL, Buffer:Emerald II:Galactor-Star in a 19:5:1 ratio, i.e., 14.06 mL:3.7 mL:0.74 mL=18.5 mL) was then added to the agonist plates.

The target of assay [3] is T1, human D2R/β-arrestin. As to the kind of experiment: Gi/cAMP agonist assay (Lance Ultra cAMP, forskolin). The class given is cell-based. The settings on record: CHO-K1 cells expressing human D2R/β-arrestin; agonist mode, 2.5 μM forskolin. Here is the method: Eu-cAMP tracer solution (10 μl, PerkinElmer, 360 μl of Tracer in 17.64 ml kit buffer) and ULight-anti-cAMP solution (10 μl, 120 μL antibody in 17.88 ml kit buffer) was then added to each well.

Assay [4] deals with T1, human D2R/β-arrestin. As to the kind of experiment: cell-based. The settings on record: β-arrestin Antagonist, CHO-K1 cells expressing human D2R/β-arrestin; antagonist mode, quinpirole 130 nM.
Protocol: Cells were prepared for assays by growing cultures for up to 2 weeks (from about 6-20 passages). A vial of frozen cells was thawed in a water bath held at 37° C. The cells were then transferred into a 50 ml tube with 10 ml growth media. The vial was rinsed with growth media and the contents transferred to the 50 ml tube. The 50 ml tube was centrifuged at 1200 rpm for 5 minutes at room temperature. […] When the cells reached about 90% confluence (approximately 3 days between passages), the cells were passaged and used for either the agonist or antagonist assays as described below.
The cells were prepared for β-arrestin assays as described above. The assays were performed using a PathHunter® β-Arrestin Detecting Kit (DiscoveRX). The cells were grown on 225 mm dishes, then washed once with 1×PBS (Cellgro), followed by digestion with 2.5 ml 1× Detachment reagent (DRX 92-0009) for approximately 2 minutes.

T1 sequence (P14416 whole entry): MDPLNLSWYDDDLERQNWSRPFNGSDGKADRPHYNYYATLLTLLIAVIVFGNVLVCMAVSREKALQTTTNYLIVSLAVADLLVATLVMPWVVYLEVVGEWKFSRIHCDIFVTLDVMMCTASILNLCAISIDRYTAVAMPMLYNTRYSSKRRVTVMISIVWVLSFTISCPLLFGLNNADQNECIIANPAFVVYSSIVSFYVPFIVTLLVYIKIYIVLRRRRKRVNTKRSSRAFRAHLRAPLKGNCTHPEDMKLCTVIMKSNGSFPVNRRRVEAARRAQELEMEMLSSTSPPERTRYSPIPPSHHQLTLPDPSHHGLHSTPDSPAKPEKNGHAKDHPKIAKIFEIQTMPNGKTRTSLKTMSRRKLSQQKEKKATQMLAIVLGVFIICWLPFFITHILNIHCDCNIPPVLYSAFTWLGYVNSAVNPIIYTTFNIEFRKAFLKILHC
D2 receptor, sequence (P14416 whole entry): as above

As to `CNC(=O)C1(C)CCN(CC2COc3ccccc3O2)CC1` (single isomer, unassigned) [Compound 202b, 1-((2,3-dihydrobenzo[b][1,4]dioxin-2-yl)methyl)-N,4-dimethylpiperidine-4-carboxamide], the Ki at D2 receptor lay in the range of 1000 to 10000 nM. Also, the IC50 at human D2R/β-arrestin [1] and on human D2R/β-arrestin [4] was 100 to 1000 nM each time. Besides, the EC50 on human D2R/β-arrestin [2] was above 30000 nM; at human D2R/β-arrestin [3], 100 to 1000 nM.
At D2 receptor, `CC1(Oc2ccc(Cl)cc2)CCN(CCOc2ccccc2)C1` (stereo not shown) [Compound 1, 3-(4-chlorophenoxy)-3-methyl-1-(2-phenoxyethyl)pyrrolidine] came in with a Ki of 1000 to 10000 nM. Moreover, the IC50 against human D2R/β-arrestin [1] was above 30000 nM; against human D2R/β-arrestin [4], 1000 to 10000 nM. The EC50 on human D2R/β-arrestin [2] was above 30000 nM; on human D2R/β-arrestin [3], below 100 nM.
`CC1(Oc2ccc(Cl)cc2)CCN(CCn2ccccc2=O)C1` (stereo not shown) [Compound 7, 1-(2-(3-(4-chlorophenoxy)-3-methylpyrrolidin-1-yl)ethyl)pyridin-2(1H)-one] had a Ki on D2 receptor of 10000 to 30000 nM. The IC50 against human D2R/β-arrestin [1] and against human D2R/β-arrestin [4] was above 30000 nM throughout. For the same compound, the EC50 at human D2R/β-arrestin [2] and on human D2R/β-arrestin [3] was above 30000 nM in each case.
On D2 receptor, `CC1(Oc2ccc(Cl)cc2)CCN(CCCCOc2ccccc2F)C1` (stereo not shown) [Compound 27, 3-(4-chlorophenoxy)-1-(4-(2-fluorophenoxy)butyl)-3-methylpyrrolidine] gave a Ki of 100 to 1000 nM. Moreover, the values for the IC50 against human D2R/β-arrestin [1] and against human D2R/β-arrestin [4] were 100 to 1000 nM and 1000 to 10000 nM, respectively. Moreover, the EC50 on human D2R/β-arrestin [2] and on human D2R/β-arrestin [3] was above 30000 nM each time.
`CC1(Oc2ccc(Cl)cc2)CCN(CCOc2cc(F)ccc2C(F)(F)F)CC1` [Compound 122, 4-(4-Chlorophenoxy)-1-(2-(5-fluoro-2-(trifluoromethyl)phenoxy)ethyl)-4-methylpiperidine] had a Ki at D2 receptor of 100 to 1000 nM. In addition, the IC50 was above 30000 nM on human D2R/β-arrestin [1] and 100 to 1000 nM against human D2R/β-arrestin [4]. Further, the EC50 at human D2R/β-arrestin [2] was above 30000 nM; at human D2R/β-arrestin [3], below 100 nM.
As to `COC1(C)CCN(CCOc2ccccc2C(F)(F)F)CC1` [Compound 123, 4-methoxy-4-methyl-1-(2-(2-(trifluoromethyl)phenoxy)ethyl) piperidine], the Ki at D2 receptor is below 100 nM. In addition, the IC50 against human D2R/β-arrestin [1] and on human D2R/β-arrestin [4] was 100 to 1000 nM each time. Further, the EC50 on human D2R/β-arrestin [2] and at human D2R/β-arrestin [3] was above 30000 nM in each case.
For `FC(F)(F)c1ccccc1OCCN1CCC2(CCCN2c2ccc(Cl)cc2)CC1` [Compound 135, 1-(4-Chlorophenyl)-8-(2-(2-(trifluoromethyl)phenoxy)ethyl)-1,8-diazaspiro[4.5]decane], the Ki on D2 receptor is below 100 nM. Moreover, the IC50 on human D2R/β-arrestin [1] and against human D2R/β-arrestin [4] was below 100 nM each time. The EC50 at human D2R/β-arrestin [2] and on human D2R/β-arrestin [3] was above 30000 nM in each case.
For `Fc1ccccc1OCCN1CCC2(CC1)CCN2c1ccc(Cl)cc1` [Compound 137, 1-(4-chlorophenyl)-7-(2-(2-fluorophenoxy)ethyl)-1,7-diazaspiro[3.5]nonane], the Ki on D2 receptor was below 100 nM. The IC50 on human D2R/β-arrestin [1] and against human D2R/β-arrestin [4] was below 100 nM each time. Also, the EC50 on human D2R/β-arrestin [2] and at human D2R/β-arrestin [3] was above 30000 nM throughout.
As to `CC1(O)CCN(CC2COc3ccccc3O2)CC1` (stereo not shown) [Compound 140, 1-((2,3-dihydrobenzo[b][1,4]dioxin-2-yl)methyl)-4-methylpiperidin-4-ol], the Ki at D2 receptor lay within 10000 to 30000 nM. Further, the IC50 is above 30000 nM against human D2R/β-arrestin [1] and 100 to 1000 nM against human D2R/β-arrestin [4]. The figures for the EC50 on human D2R/β-arrestin [2] and at human D2R/β-arrestin [3] were 1000 to 10000 nM and below 100 nM, respectively.
On to `Clc1ccc2c(c1)CC1(CCN(CCOc3ccccc3)C1)O2` (stereo not shown) [Compound 144, 5-chloro-1′-(2-phenoxyethyl)-3H-spiro[benzofuran-2,3′-pyrrolidine]], for which the Ki on D2 receptor lay within 100 to 1000 nM. Moreover, the IC50 against human D2R/β-arrestin [1] lay in the range of 100 to 1000 nM; on human D2R/β-arrestin [4], 1000 to 10000 nM. For the same compound, the EC50 on human D2R/β-arrestin [2] and at human D2R/β-arrestin [3] was above 30000 nM in each case.
`CC1(Oc2ccccn2)CCN(CCOc2ccc(C(F)(F)F)cc2)CC1` [Compound 164, 2-((4-methyl-1-(2-(4-(trifluoromethyl)phenoxy)ethyl)piperidin-4-yl)oxy)pyridine]: the Ki at D2 receptor fell in the range of 10000 to 30000 nM. Also, the results for the IC50 against human D2R/β-arrestin [1] and at human D2R/β-arrestin [4] were above 30000 nM and 10000 to 30000 nM, respectively. Further, the EC50 on human D2R/β-arrestin [2] was above 30000 nM; at human D2R/β-arrestin [3], 100 to 1000 nM.
On to `CN(C)C(=O)C1(C)CCN(C[C@H]2COc3ccccc3O2)CC1` [Compound 205, (S)-1-((2,3-dihydrobenzo[b][1,4]dioxin-2-yl)methyl)-N,N,4-trimethylpiperidine-4-carboxamide], for which the Ki at D2 receptor lay within 100 to 1000 nM. The IC50 at human D2R/β-arrestin [1] was above 30000 nM; against human D2R/β-arrestin [4] it was 100 to 1000 nM. The EC50 was 100 to 1000 nM on human D2R/β-arrestin [2] and below 100 nM at human D2R/β-arrestin [3].
`CC1(C(=O)N2CCCC2)CCN(C[C@H]2COc3ccccc3O2)CC1` [Compound 206, (S)-(1-((2,3-dihydrobenzo[b][1,4]dioxin-2-yl)methyl)-4-methylpiperidin-4-yl)(pyrrolidin-1-yl)methanone] yielded a Ki at D2 receptor of 100 to 1000 nM. Further, the IC50 against human D2R/β-arrestin [1] is above 30000 nM; at human D2R/β-arrestin [4], below 100 nM. For the same compound, the EC50 at human D2R/β-arrestin [2] and at human D2R/β-arrestin [3] was below 100 nM throughout.
`CC(=O)NC1(C)CCN(C[C@H]2COc3ccccc3O2)CC1` [Compound 208, (S)—N-(1-((2,3-dihydrobenzo[b][1,4]dioxin-2-yl)methyl)-4-methylpiperidin-4-yl)acetamide]: the Ki at D2 receptor fell in the range of 100 to 1000 nM. The IC50 against human D2R/β-arrestin [1] was above 30000 nM; at human D2R/β-arrestin [4], below 100 nM. Moreover, the EC50 was 100 to 1000 nM at human D2R/β-arrestin [2] and below 100 nM on human D2R/β-arrestin [3].
`CC1(NC(=O)C2CC2)CCN(C[C@H]2COc3ccccc3O2)CC1` [Compound 209, (S)—N-(1-((2,3-dihydrobenzo[b][1,4]dioxin-2-yl)methyl)-4-methylpiperidin-4-yl)cyclopropanecarboxamide] registered a Ki at D2 receptor of 100 to 1000 nM. In addition, the IC50 against human D2R/β-arrestin [1] was above 30000 nM; on human D2R/β-arrestin [4], below 100 nM. The concentration for a half-maximal effect (EC50) on human D2R/β-arrestin [2] was above 30000 nM; on human D2R/β-arrestin [3] it was below 100 nM.
`CC(=O)NC1(C)CCN(C[C@H]2COc3ccc(F)cc3O2)CC1` [Compound 210, (S)—N-(1-((7-fluoro-2,3-dihydrobenzo[b][1,4]dioxin-2-yl)methyl)-4-methylpiperidin-4-yl)acetamide] gave a Ki on D2 receptor of 100 to 1000 nM. Besides, the IC50 is above 30000 nM at human D2R/β-arrestin [1] and 100 to 1000 nM on human D2R/β-arrestin [4]. Further, the EC50 at human D2R/β-arrestin [2] was 100 to 1000 nM; on human D2R/β-arrestin [3], below 100 nM.
Consider `FC(F)(F)c1ccccc1OCCN1CCC2(CC1)CC2c1ccccc1` (stereo not shown) [Example 102, 1-Phenyl-6-(2-(2-(trifluoromethyl)phenoxy)ethyl)-6-azaspiro[2.5]octane], for which the IC50 against human D2R/β-arrestin [1] and on human D2R/β-arrestin [4] was 1000 to 10000 nM in each case. Besides, the results for the EC50 at human D2R/β-arrestin [2] and on human D2R/β-arrestin [3] were above 30000 nM and 100 to 1000 nM, respectively.
In the case of `OC(c1ccccc1)C1(O)CCN(CCOc2ccccc2C(F)(F)F)CC1` (stereo not shown) [Example 103, 4-(Hydroxy(phenyl)methyl)-1-(2-(2-(trifluoromethyl)phenoxy)ethyl) piperidin-4-ol], the IC50 on human D2R/β-arrestin [1] and against human D2R/β-arrestin [4] was 100 to 1000 nM each time. The EC50 at human D2R/β-arrestin [2] and at human D2R/β-arrestin [3] was above 30000 nM throughout.
On to `CC1(Oc2ccccc2Cl)CCN(CCOc2ccccc2C(F)(F)F)CC1` [Example 104, 4-(2-Chlorophenoxy)-4-methyl-1-(2-(2-(trifluoromethyl)phenoxy)ethyl) piperidine], for which the IC50 lay within 1000 to 10000 nM at human D2R/β-arrestin [1] and 100 to 1000 nM on human D2R/β-arrestin [4]. For the same compound, the EC50 at human D2R/β-arrestin [2] is above 30000 nM; at human D2R/β-arrestin [3], 10000 to 30000 nM.
For the compound `CC1(Oc2ccccn2)CCN(CCOc2ccccc2C(F)(F)F)CC1` [Example 105, 2-((4-methyl-1-(2-(2-(trifluoromethyl)phenoxy)ethyl)piperidin-4-yl)oxy) pyridine], the IC50 against human D2R/β-arrestin [1] is below 100 nM; at human D2R/β-arrestin [4], 100 to 1000 nM. For the same compound, the EC50 at human D2R/β-arrestin [2] is above 30000 nM; at human D2R/β-arrestin [3], below 100 nM.
In the case of `CC1(C(O)c2ccccc2)CCN(CCOc2ccccc2C(F)(F)F)CC1` (stereo not shown) [Example 107, (4-methyl-1-(2-(2-(trifluoromethyl)phenoxy)ethyl)piperidin-4-yl)(phenyl)methanol], the IC50 at human D2R/β-arrestin [1] and at human D2R/β-arrestin [4] was 100 to 1000 nM throughout. In addition, the EC50 on human D2R/β-arrestin [2] is 10000 to 30000 nM; on human D2R/β-arrestin [3] it was below 100 nM.
As for `CC1(Oc2ccc(Cl)cc2)CCCN(C(C)(C)COc2ccccc2)C1` (stereo not shown) [Example 108, 3-(4-Chlorophenoxy)-3-methyl-1-(2-methyl-1-phenoxypropan-2-yl)piperidine], the values for the IC50 against human D2R/β-arrestin [1] and at human D2R/β-arrestin [4] were 1000 to 10000 nM and 10000 to 30000 nM, respectively. For the same compound, the EC50 on human D2R/β-arrestin [2] and at human D2R/β-arrestin [3] was above 30000 nM in each case.
As for `CC1(Oc2ccccc2)CCN(CCOc2ccccc2C#N)CC1` [Example 109, 2-(2-(4-methyl-4-phenoxypiperidin-1-yl)ethoxy)benzonitrile], the IC50 is above 30000 nM on human D2R/β-arrestin [1] and below 100 nM at human D2R/β-arrestin [4]. Further, the EC50 at human D2R/β-arrestin [2] and on human D2R/β-arrestin [3] was below 100 nM in each case.
As for `CN(C)c1ccccc1OCCN1CCC(C)(Oc2ccccc2)CC1` [Example 111, N,N-dimethyl-2-(2-(4-methyl-4-phenoxypiperidin-1-yl)ethoxy)aniline], the IC50 on human D2R/β-arrestin [1] lay within 100 to 1000 nM; against human D2R/β-arrestin [4], 1000 to 10000 nM. Besides, the EC50 on human D2R/β-arrestin [2] and on human D2R/β-arrestin [3] was above 30000 nM throughout.

What is called Ki is a measure of affinity in units of concentration, obtained from inhibition or displacement. Read a low Ki as tighter binding. The IC50 is the concentration that gives 50% inhibition. In general, EC50 refers to the concentration that produces a half-maximal response.
